Literature values in patent US9512158B2, “Enhanced immunogenicity of tumor associated antigens by addition of alphagal epitopes” (NewLink Genetics Corp., priority 2006, dated 2016).

Legend:
[1] = target: T1, MHC-I H2-K^b (Mus musculus, UniProt P01901); details: compared with peptide #1 TWHRYHLL; cited from earlier work
T1 sequence (P01901 22-369): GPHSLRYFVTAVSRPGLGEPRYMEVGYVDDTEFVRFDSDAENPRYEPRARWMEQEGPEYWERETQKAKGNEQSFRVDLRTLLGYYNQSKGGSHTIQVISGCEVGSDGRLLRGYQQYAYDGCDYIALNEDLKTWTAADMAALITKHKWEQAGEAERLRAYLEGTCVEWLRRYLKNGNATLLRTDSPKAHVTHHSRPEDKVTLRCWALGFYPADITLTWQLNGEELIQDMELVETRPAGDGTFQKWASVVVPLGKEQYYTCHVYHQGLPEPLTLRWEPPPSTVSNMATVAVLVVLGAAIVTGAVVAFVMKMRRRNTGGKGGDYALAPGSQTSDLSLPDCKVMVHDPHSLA
T1 sequence (P01887 21-119 partner): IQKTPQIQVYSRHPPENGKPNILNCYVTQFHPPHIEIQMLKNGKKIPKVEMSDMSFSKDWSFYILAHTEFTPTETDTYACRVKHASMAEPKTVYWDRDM

[2] = tested on: B16 melanoma; details: cited from earlier work
[3] = tested on: αGT knockout mice; details: cited from earlier work

Substance | binding affinity to MHC-I H2-K^b [1] | protective immunity against B16 melanoma ([2]; C57Bl/6 mice (H-2K^b), in the presence of adjuvant) | immunogenicity ([2]; in the absence of adjuvant) | T cell response to BSA ([3]; mouse, in vivo) | production of anti-BSA IgG antibodies ([3]; without adjuvant)
TAYRYHLL | better binding affinity | induces protective immunity | not immunogenic |  | 
BSA conjugated with αGal: BSA conjugated with αGal |  |  |  | increase | significant production
